Here are results for seven compounds from patent publication US11242337B2, “Compounds useful for treating gastrointestinal tract disorders” (Ardelyx, Inc., priority 2017, dated 2022).

Experiment [1] has as its target T1, NHE3 (Homo sapiens, UniProt P48764).
T1 construct: expressed in transfected cells
T1 sequence (P48764 26-834): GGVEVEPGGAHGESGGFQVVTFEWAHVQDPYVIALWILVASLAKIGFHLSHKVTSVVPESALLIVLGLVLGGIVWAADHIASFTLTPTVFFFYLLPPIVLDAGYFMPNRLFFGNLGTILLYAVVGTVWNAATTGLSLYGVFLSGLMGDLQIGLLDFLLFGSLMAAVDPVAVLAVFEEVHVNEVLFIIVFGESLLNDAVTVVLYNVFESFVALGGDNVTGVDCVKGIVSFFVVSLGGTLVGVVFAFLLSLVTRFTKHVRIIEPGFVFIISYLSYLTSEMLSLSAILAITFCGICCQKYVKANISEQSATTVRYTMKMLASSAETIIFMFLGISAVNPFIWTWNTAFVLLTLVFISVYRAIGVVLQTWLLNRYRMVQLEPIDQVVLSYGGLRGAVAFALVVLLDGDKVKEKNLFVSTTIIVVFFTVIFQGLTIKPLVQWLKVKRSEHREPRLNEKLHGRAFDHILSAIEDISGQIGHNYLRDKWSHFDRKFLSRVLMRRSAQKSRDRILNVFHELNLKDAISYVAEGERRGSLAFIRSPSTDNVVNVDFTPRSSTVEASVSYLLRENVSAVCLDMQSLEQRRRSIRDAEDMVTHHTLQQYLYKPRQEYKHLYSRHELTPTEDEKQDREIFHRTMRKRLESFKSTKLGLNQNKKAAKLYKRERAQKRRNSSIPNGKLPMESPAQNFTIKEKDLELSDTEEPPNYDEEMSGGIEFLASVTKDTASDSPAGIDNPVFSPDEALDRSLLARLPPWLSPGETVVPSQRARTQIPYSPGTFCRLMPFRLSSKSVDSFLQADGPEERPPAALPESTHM
T1 sequence (Q99653 2-195 partner limits assumed): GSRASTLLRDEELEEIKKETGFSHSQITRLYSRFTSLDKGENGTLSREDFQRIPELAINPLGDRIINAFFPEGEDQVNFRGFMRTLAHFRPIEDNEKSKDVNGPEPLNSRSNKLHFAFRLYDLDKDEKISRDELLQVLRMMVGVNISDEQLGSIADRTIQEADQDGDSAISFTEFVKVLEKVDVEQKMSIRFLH
Briefly: Cell-based assay of NHE-3 activity (pre-incubation inhibition), human. As to conditions: human Preincubation. On the procedure: Rat and human NHE-3-mediated Na^+-dependent H^+ antiport was measured using a modification of the pH sensitive dye method originally reported by Paradiso (Proc. Natl. Acad. Sci. USA. (1984) 81(23): 7436-7440). PS120 fibroblasts stably expressing human NHE3 and NHERF2 were obtained from Mark Donowitz (Baltimore, Md.). Opossum kidney (OK) cells were obtained from the ATCC and propagated per their instructions. The rat NHE-3 gene (GenBank M85300) was introduced into OK cells via electroporation, and cells were seeded into 96 well plates and grown overnight. Medium was aspirated from the wells then incubated for 30 min at 37° C. with NH4Cl-HEPES buffer (20 mM NH4Cl, 80 mM NaCl, 50 mM HEPES, 5 mM KCl, 2 mM CaCl2, 1 mM MgCl2, pH 7.4) containing 5 μM BCECF-AM. Cells were washed once with Ammonium free, Na^+-free HEPES (100 mM choline, 50 mM HEPES, 10 mM glucose, 5 mM KCl, 2 mM CaCl2, 1 mM MgCl2, pH 7.4) and incubated in the same buffer for 10 minutes at room temperature to lower intracellular pH with 0-30 μM test compound. […] Changes in intracellular pH were monitored using a FLIPR Tetra® (Molecular Devices, Sunnyvale, Calif.) by excitation at λex 439 to 505 nm, and measuring BCECF fluorescence at λem 538 nm. The initial rate of the fluorescence ratio change was used as a measure of NHE-mediated Na^+/H^+ activity, and reported as the change in fluorescence ratio per minute.

For experiment [2], the target named is T1, NHE3. Briefly: Cell-based assay of NHE-3 activity (persistent inhibition), human. Particulars: human Persistence, 60 min incubation then washout. On the procedure:
The ability of compounds to inhibit human and rat NHE-3-mediated Na^+ dependent H^+ antiport after application and washout was measured using a modification of the pH sensitive dye method described above. PS120 fibroblasts stably expressing human NHE3 and NHERF2 were obtained from Mark Donowitz (Baltimore, Md.). Opossum kidney (OK) cells were obtained from the ATCC and propagated per their instructions. The rat NHE-3 gene was introduced into OK cells via electroporation, and cells were seeded into 96 well plates and grown overnight. Medium was aspirated from the wells, cells were washed once with NaCl-HEPES buffer (100 mM NaCl, 50 mM HEPES, 10 mM glucose, 5 mM KCl, 2 mM CaCl2, 1 mM MgCl2, pH 7.4), then overlayed with NaCl-HEPES buffer containing 0-30 μM test compound. After a 60 min incubation at room temperature, the test drug containing buffer was aspirated from the cells. Following aspiration, cells were washed once with NaCl-HEPES buffer without drug, then incubated for 30 min at 37° C. with NH4Cl-HEPES buffer (20 mM NH4Cl, 80 mM NaCl, 50 mM HEPES, 5 mM KCl, 2 mM CaCl2, 1 mM MgCl2, pH 7.4) containing 5 μM BCECF-AM. Cells were washed once with Ammonium free, Na^+-free HEPES (100 mM choline, 50 mM HEPES, 10 mM glucose, 5 mM KCl, 2 mM CaCl2, 1 mM MgCl2, pH 7.4) and incubated in the same buffer for 10 minutes at room temperature to lower intracellular pH. NHE-3-mediated recovery of neutral intracellular pH was initiated (10 min after compound washout) by addition of Na-HEPES buffer. […] Changes in intracellular pH were monitored using a FLIPR Tetra® (Molecular Devices, Sunnyvale, Calif.) by excitation at λex 439 to 505 nm, and measuring BCECF fluorescence at λem 538 nm. The initial rate of the fluorescence ratio change was used as a measure of NHE-mediated Na^+/H^+ activity, and reported as the change in fluorescence ratio per minute.

Where a name gives a salt, the structure may show the parent alone.

One may read the IC50 as the concentration at which inhibition is half-maximal. `COc1cc(Cl)cc2c1C[C@H](N(C)C)[C@H]2Oc1ccc(S(=O)(=O)NCCOCCOCCNC(=O)NCCCCNC(=O)NCCOCCOCCNS(=O)(=O)c2ccc(O[C@H]3c4cc(Cl)cc(OC)c4C[C@@H]3N(C)C)cc2)cc1` [Example 15, 3-[2-(2-[2-[(4-[[(1S,2S)-6-Chloro-2-(dimethylamino)-4-methoxy-2,3-dihydro-1H-inden-1-yl]oxy]benzene)sulfonamido]ethoxy]ethoxy)ethyl]-1-[4-([[2-(2-[2-[(4-[[(1S,2S)-6-chloro-2-(dimethylamino)-4-methoxy-2,3-dihydro-1H-inden-1-yl]oxy]benzene)sulfonamido]ethoxy]ethoxy)ethyl]carbamoyl]amino)butyl]urea; bis(trifluoroacetic acid)]: the “% inhibition” value on NHE3 [1] was “C (>70%)”. The same compound showed an IC50 against NHE3 [1] (0-30 μM test compound) of 100 to 1000 nM. Besides, on NHE3 [2], the “% inhibition” value is on record as “A (NHE3 < 40%)” and the pIC50 result is on record as “A (NHE3 pIC50 < 6)”.

In the case of `Cc1cc(S(=O)(=O)NCCOCCOCCNC(=O)NCCCCNC(=O)NCCOCCOCCNS(=O)(=O)c2ccc(O[C@H]3c4cc(Cl)cc(F)c4C[C@@H]3N(C)C)c(C)c2)ccc1O[C@H]1c2cc(Cl)cc(F)c2C[C@@H]1N(C)C` [Example 16], the “% inhibition” value at NHE3 [1] and on NHE3 [2] was “B (40-70%)” each time. In addition, the pIC50 result on NHE3 [1] (0-30 μM test compound) and on NHE3 [2] was “C (NHE3 pIC50 > 7)” each time.

For the compound `Cc1cc(S(=O)(=O)NCCOCCOCCNC(=O)NCCCCNC(=O)NCCOCCOCCNS(=O)(=O)c2ccc(O[C@H]3c4cc(Cl)cc(C#N)c4C[C@@H]3N(C)C)c(C)c2)ccc1O[C@H]1c2cc(Cl)cc(C#N)c2C[C@@H]1N(C)C` [Example 18, 3-[2-(2-[2-[(4-[[(1S,2S)-6-Chloro-4-cyano-2-(dimethylamino)-2,3-dihydro-1H-inden-1-yl]oxy]-3-methylbenzene)sulfonamido]ethoxy]ethoxy)ethyl]-1-[4-([[2-(2-[2-[(4-[[(1S,2S)-6-chloro-4-cyano-2-(dimethylamino)-2,3-dihydro-1H-inden-1-yl]oxy]-3-methylbenzene)sulfonamido]ethoxy]ethoxy)ethyl]carbamoyl]amino)butyl]urea; bis(trifluoroacetic acid)], the “% inhibition” value at NHE3 [1] and on NHE3 [2] was “B (40-70%)” throughout. Besides, the pIC50 result against NHE3 [1] (0-30 μM test compound) and on NHE3 [2] was “C (NHE3 pIC50 > 7)” throughout.

As to `Cc1cc(S(=O)(=O)NCCOCCOCCNC(=O)NCCCCNC(=O)NCCOCCOCCNS(=O)(=O)c2ccc(O[C@H]3c4cc(Cl)cc(C(F)(F)F)c4C[C@@H]3N(C)C)c(C)c2)ccc1O[C@H]1c2cc(Cl)cc(C(F)(F)F)c2C[C@@H]1N(C)C` [Example 19, 3-[2-(2-[2-[(4-[[(1S,2S)-6-Chloro-2-(dimethylamino)-4-(trifluoromethyl)-2,3-dihydro-1H-inden-1-yl]oxy]-3-methylbenzene)sulfonamido]ethoxy]ethoxy)ethyl]-1-[4-([[2-(2-[2-[(4-[[(1S,2S)-6-chloro-2-(dimethylamino)-4-(trifluoromethyl)-2,3-dihydro-1H-inden-1-yl]oxy]-3-methylbenzene)sulfonamido]ethoxy]ethoxy)ethyl]carbamoyl]amino)butyl]urea], the “% inhibition” value on NHE3 [1] and on NHE3 [2] was “A (NHE3 < 40%)” throughout. Further, the pIC50 result at NHE3 [1] (0-30 μM test compound) and against NHE3 [2] was “A (NHE3 pIC50 < 6)” each time.

For the compound `Cc1cc(S(=O)(=O)NCCOCCOCCNC(=O)NCCCCNC(=O)NCCOCCOCCNS(=O)(=O)c2ccc(O[C@H]3c4cc(Cl)cc(OC(F)(F)F)c4C[C@@H]3N(C)C)c(C)c2)ccc1O[C@H]1c2cc(Cl)cc(OC(F)(F)F)c2C[C@@H]1N(C)C` [Example 20, 1-[2-(2-[2-[(4-[[(1S,2S)-6-Chloro-2-(dimethylamino)-4-(trifluoromethoxy)-2,3-dihydro-1H-inden-1-yl]oxy]-3-methylbenzene)sulfonamido]ethoxy]ethoxy)ethyl]-3-[4-([[2-(2-[2-[(4-[[(1S,2S)-6-chloro-2-(dimethylamino)-4-(trifluoromethoxy)-2,3-dihydro-1H-inden-1-yl]oxy]-3-methylbenzene)sulfonamido]ethoxy]ethoxy)ethyl]carbamoyl]amino)butyl]urea], the “% inhibition” value at NHE3 [1] and at NHE3 [2] was “A (NHE3 < 40%)” in each case. For the same compound, the pIC50 result at NHE3 [1] (0-30 μM test compound) and against NHE3 [2] was “A (NHE3 pIC50 < 6)” each time.

As to `COc1cc(Cl)cc2c1C[C@H](N(C)C)[C@H]2Oc1ccc(S(=O)(=O)NCCOCCOCCNC(=O)NCCCCNC(=O)NCCOCCOCCNS(=O)(=O)c2ccc(O[C@H]3c4cc(Cl)cc(OC)c4C[C@@H]3N(C)C)c(C)c2)cc1C` [Example 21, 3-[2-(2-[2-[(4-[[(1S,2S)-6-Chloro-2-(dimethylamino)-4-methoxy-2,3-dihydro-1H-inden-1-yl]oxy]-3-methylbenzene)sulfonamido]ethoxy]ethoxy)ethyl]-1-[4-([[2-(2-[2-[(4-[[(1S,2S)-6-chloro-2-(dimethylamino)-4-methoxy-2,3-dihydro-1H-inden-1-yl]oxy]-3-methylbenzene)sulfonamido]ethoxy]ethoxy)ethyl]carbamoyl]amino)butyl]urea; bis(trifluoroacetic acid)], the figures for the “% inhibition” value at NHE3 [1] and on NHE3 [2] were “A (NHE3 < 40%)” and “C (>70%)”, respectively. Also, the pIC50 result at NHE3 [1] (0-30 μM test compound) is on record as “C (NHE3 pIC50 > 7)”; at NHE3 [2], “A (NHE3 pIC50 < 6)”.

As for `Cc1cc(S(=O)(=O)NCCOCCOCCNC(=O)NCCCCNC(=O)NCCOCCOCCNS(=O)(=O)c2ccc(O[C@H]3c4cc(Cl)cc(Cl)c4C[C@@H]3N(C)C)c(C)c2)ccc1O[C@H]1c2cc(Cl)cc(Cl)c2C[C@@H]1N(C)C` [Example 22, 3-[2-(2-[2-[(4-[[(1S,2S)-4,6-Dichloro-2-(dimethylamino)-2,3-dihydro-1H-inden-1-yl]oxy]-3-methylbenzene)sulfonamido]ethoxy]ethoxy)ethyl]-1-[4-([[2-(2-[2-[(4-[[(1S,2S)-4,6-dichloro-2-(dimethylamino)-2,3-dihydro-1H-inden-1-yl]oxy]-3-methylbenzene)sulfonamido]ethoxy]ethoxy)ethyl]carbamoyl]amino)butyl]urea dihydrochloride], the “% inhibition” value at NHE3 [1] and on NHE3 [2] was “C (>70%)” throughout. Also, the pIC50 result on NHE3 [1] (0-30 μM test compound) and on NHE3 [2] was “C (NHE3 pIC50 > 7)” in each case.
